Results on one substance are retold here after patent publication US20120083522A1, “MODULATION OF INFLAMMATORY RESPONSES BY FACTOR XI” (Isis Pharmaceuitcals, inc., priority 2009, published 2012).

In the oligonucleotide strings, read from the 5' end, every base follows the letter of its sugar. An asterisk marks phosphorothioate; unmarked linkages are phosphodiester. Other units and linkages are bracketed, terminal groups are in braces. A string of capitals states the bases alone. e = 2'-O-(2-methoxyethyl) (MOE); [5mC] = 5-methylcytosine; d = 2'-deoxy (DNA)

The first data set relates to Factor XI protein. The data set is described as follows: Cynomolgus monkeys: plasma Factor XI protein ELISA (Example 29). The conditions noted are these: escalating doses 5, 10, 25 mg/kg s.c., day 8. Format: in vivo. The protocol:
(§1) Groups, each consisting of two male and three female monkeys, were injected subcutaneously with ISIS 416838, ISIS 416850, ISIS 416858, ISIS 416864, or ISIS 417002 in escalating doses. Antisense oligonucleotide was administered to the monkeys at 5 mg/kg three times per a week for week 1; 5 mg/kg twice per week for weeks 2 and 3; 10 mg/kg three times per week for week 4; 10 mg/kg twice per week for weeks 5 and 6; 25 mg/kg three times per week for week 7; and 25 mg/kg twice per week for weeks 8, 9, 10, 11, and 12. One control group, consisting of two male and three female monkeys, was injected subcutaneously with PBS according to the same dosing regimen. An additional experimental group, consisting of two male and three female monkeys, was injected subcutaneously with ISIS 416850 in a chronic, lower dose regimen. Antisense oligonucleotide was administered to the monkeys at 5 mg/kg three times per week for week 1; 5 mg/kg twice per week for week 2 and 3; 10 mg/kg three times per week for week 4; and 10 mg/kg twice per week for weeks 5 to 12. Body weights were measured weekly. Blood samples were collected 14 days and 5 days before the start of treatment and subsequently once per week for Factor XI protein activity analysis in plasma and measurement of various hematologic factors. On day 85, the monkeys were euthanized by exsanguination while under deep anesthesia, and organs harvested for further analysis.
Plasma samples from all monkey groups taken on different days were analyzed by a sandwich-style ELISA assay (Affinity Biologicals Inc.) using an affinity-purified polyclonal anti-Factor XI antibody as the capture antibody and a peroxidase-conjugated polyclonal anti-Factor XI antibody as the detecting antibody. Monkey plasma was diluted 1:50 for the assay. Peroxidase activity was expressed by incubation with the substrate o-phenylenediamine. The color produced was quantified using a microplate reader at 490 nm and was considered to be proportional to the concentration of Factor XI in the samples.
The results are presented in Table 122, expressed as percentage reduction relative to that of the PBS control.
Take “ISIS 416864: gapmer of Table 8 (antisense eG*eG*e[5mC]*eA*eG*d[5mC]*dG*dG*dA*d[5mC]*dG*dG*d[5mC]*dA*dT*eT*eG*eG*eT*eG)”: the “Inhibition of Factor XI protein relative to the PBS control” value is given as 7%.

Still in this data set, the particulars now being: escalating doses 5, 10, 25 mg/kg s.c., day 15.
For the substance “ISIS 416864: gapmer of Table 8 (antisense eG*eG*e[5mC]*eA*eG*d[5mC]*dG*dG*dA*d[5mC]*dG*dG*d[5mC]*dA*dT*eT*eG*eG*eT*eG)”, the “Inhibition of Factor XI protein relative to the PBS control” value amounted to 9%.

Staying with this data set, now noted: escalating doses 5, 10, 25 mg/kg s.c., day 22.
As to “ISIS 416864: gapmer of Table 8 (antisense eG*eG*e[5mC]*eA*eG*d[5mC]*dG*dG*dA*d[5mC]*dG*dG*d[5mC]*dA*dT*eT*eG*eG*eT*eG)”, the “Inhibition of Factor XI protein relative to the PBS control” value is listed as 7%.

Staying with this data set, now noted: escalating doses 5, 10, 25 mg/kg s.c., day 29.
For the substance “ISIS 416864: gapmer of Table 8 (antisense eG*eG*e[5mC]*eA*eG*d[5mC]*dG*dG*dA*d[5mC]*dG*dG*d[5mC]*dA*dT*eT*eG*eG*eT*eG)”, the “Inhibition of Factor XI protein relative to the PBS control” value is reported as 10%.

Still in this data set, the particulars now being: escalating doses 5, 10, 25 mg/kg s.c., day 36.
As for “ISIS 416864: gapmer of Table 8 (antisense eG*eG*e[5mC]*eA*eG*d[5mC]*dG*dG*dA*d[5mC]*dG*dG*d[5mC]*dA*dT*eT*eG*eG*eT*eG)”, the “Inhibition of Factor XI protein relative to the PBS control” value is given as 9%.

The data set is the same for the next values; noted with them: escalating doses 5, 10, 25 mg/kg s.c., day 43.
As for “ISIS 416864: gapmer of Table 8 (antisense eG*eG*e[5mC]*eA*eG*d[5mC]*dG*dG*dA*d[5mC]*dG*dG*d[5mC]*dA*dT*eT*eG*eG*eT*eG)”, the “Inhibition of Factor XI protein relative to the PBS control” value came out at 9%.

Still in this data set, the particulars now being: escalating doses 5, 10, 25 mg/kg s.c., day 50.
“ISIS 416864: gapmer of Table 8 (antisense eG*eG*e[5mC]*eA*eG*d[5mC]*dG*dG*dA*d[5mC]*dG*dG*d[5mC]*dA*dT*eT*eG*eG*eT*eG)”: the “Inhibition of Factor XI protein relative to the PBS control” value amounted to 10%.

The data set is the same for the next values; noted with them: escalating doses 5, 10, 25 mg/kg s.c., day 57.
As to “ISIS 416864: gapmer of Table 8 (antisense eG*eG*e[5mC]*eA*eG*d[5mC]*dG*dG*dA*d[5mC]*dG*dG*d[5mC]*dA*dT*eT*eG*eG*eT*eG)”, the “Inhibition of Factor XI protein relative to the PBS control” value is on record as 7%.

Still in this data set, the particulars now being: escalating doses 5, 10, 25 mg/kg s.c., day 64.
Take “ISIS 416864: gapmer of Table 8 (antisense eG*eG*e[5mC]*eA*eG*d[5mC]*dG*dG*dA*d[5mC]*dG*dG*d[5mC]*dA*dT*eT*eG*eG*eT*eG)”: the “Inhibition of Factor XI protein relative to the PBS control” value turned out to be 5%.

Still in this data set, the particulars now being: escalating doses 5, 10, 25 mg/kg s.c., day 71.
For “ISIS 416864: gapmer of Table 8 (antisense eG*eG*e[5mC]*eA*eG*d[5mC]*dG*dG*dA*d[5mC]*dG*dG*d[5mC]*dA*dT*eT*eG*eG*eT*eG)”, the “Inhibition of Factor XI protein relative to the PBS control” value was found to be 10%.

The data set is the same for the next values; noted with them: escalating doses 5, 10, 25 mg/kg s.c., day 78.
Regarding “ISIS 416864: gapmer of Table 8 (antisense eG*eG*e[5mC]*eA*eG*d[5mC]*dG*dG*dA*d[5mC]*dG*dG*d[5mC]*dA*dT*eT*eG*eG*eT*eG)”, the “Inhibition of Factor XI protein relative to the PBS control” value stood at 9%.

The same data set, now with this note: escalating doses 5, 10, 25 mg/kg s.c., day 85.
Turning to “ISIS 416864: gapmer of Table 8 (antisense eG*eG*e[5mC]*eA*eG*d[5mC]*dG*dG*dA*d[5mC]*dG*dG*d[5mC]*dA*dT*eT*eG*eG*eT*eG)”, the “Inhibition of Factor XI protein relative to the PBS control” value was 8%.

Still in this data set, the particulars now being: escalating doses 5, 10, 25 mg/kg s.c., day −5 (before treatment).
With “ISIS 416864: gapmer of Table 8 (antisense eG*eG*e[5mC]*eA*eG*d[5mC]*dG*dG*dA*d[5mC]*dG*dG*d[5mC]*dA*dT*eT*eG*eG*eT*eG)”, the “Inhibition of Factor XI protein relative to the PBS control” value amounted to 5%.

Staying with this data set, now noted: escalating doses 5, 10, 25 mg/kg s.c., day −14 (before treatment).
As to “ISIS 416864: gapmer of Table 8 (antisense eG*eG*e[5mC]*eA*eG*d[5mC]*dG*dG*dA*d[5mC]*dG*dG*d[5mC]*dA*dT*eT*eG*eG*eT*eG)”, the “Inhibition of Factor XI protein relative to the PBS control” value is listed as 0%.

Tested on in a further data set: not listed separately
In words: Cynomolgus monkeys: body and organ weights (Example 29). Format: in vivo. Conditions: after euthanasia. As for the experimental part: as §1
Body weights were taken once weekly throughout the dosing regimen. […] Organ weights were taken after the animals were euthanized and livers, kidneys and spleens were harvested and weighed. […] The ISIS oligonucleotide, ISIS 416850, given with the chronic dose regimen is distinguished from the other oligonucleotides with an asterisk (*).
As for “ISIS 416864: gapmer of Table 8 (antisense eG*eG*e[5mC]*eA*eG*d[5mC]*dG*dG*dA*d[5mC]*dG*dG*d[5mC]*dA*dT*eT*eG*eG*eT*eG)”, the Kidney weight was 14 g, the Liver weight is on record as 53 g and the Spleen weight amounted to 5 g.

Still in this data set, the particulars now being: escalating doses 5, 10, 25 mg/kg s.c., day 1.
On to “ISIS 416864: gapmer of Table 8 (antisense eG*eG*e[5mC]*eA*eG*d[5mC]*dG*dG*dA*d[5mC]*dG*dG*d[5mC]*dA*dT*eT*eG*eG*eT*eG)”, for which the Body weight was 2890 g.

Staying with this data set, now noted: escalating doses 5, 10, 25 mg/kg s.c., day 8.
In turn, “ISIS 416864: gapmer of Table 8 (antisense eG*eG*e[5mC]*eA*eG*d[5mC]*dG*dG*dA*d[5mC]*dG*dG*d[5mC]*dA*dT*eT*eG*eG*eT*eG)” gave a Body weight of 2784 g.

The same data set, now with this note: escalating doses 5, 10, 25 mg/kg s.c., day 15.
On to “ISIS 416864: gapmer of Table 8 (antisense eG*eG*e[5mC]*eA*eG*d[5mC]*dG*dG*dA*d[5mC]*dG*dG*d[5mC]*dA*dT*eT*eG*eG*eT*eG)”, for which the Body weight was determined as 2817 g.

The data set is the same for the next values; noted with them: escalating doses 5, 10, 25 mg/kg s.c., day 22.
“ISIS 416864: gapmer of Table 8 (antisense eG*eG*e[5mC]*eA*eG*d[5mC]*dG*dG*dA*d[5mC]*dG*dG*d[5mC]*dA*dT*eT*eG*eG*eT*eG)” yielded a Body weight of 2857 g.
